# Molecular target: T1, Human GPR120 short form (Homo sapiens, UniProt Q5NUL3)
# T1 construct: expressed in transfected cells
# T1 sequence (Q5NUL3 1-361): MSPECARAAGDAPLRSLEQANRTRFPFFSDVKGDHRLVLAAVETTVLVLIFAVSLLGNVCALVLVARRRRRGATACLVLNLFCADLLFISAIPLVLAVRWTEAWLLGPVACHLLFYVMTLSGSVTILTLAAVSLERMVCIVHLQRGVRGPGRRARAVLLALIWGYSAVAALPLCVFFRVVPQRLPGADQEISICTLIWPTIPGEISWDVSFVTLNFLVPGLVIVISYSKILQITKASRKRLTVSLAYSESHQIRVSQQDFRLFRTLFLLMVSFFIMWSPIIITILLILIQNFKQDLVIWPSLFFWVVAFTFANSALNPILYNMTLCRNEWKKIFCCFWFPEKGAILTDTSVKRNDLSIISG
# Experiment: Human GPR120 in Calcium Flux Assay, Procedure Calcium A (2500 cells/well)
# Type: cell-based
# Outline: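 HEK293 cells stably expressing GPR120 short isoform, 2500 cells/well, serum-starved 1 h, loaded with Fluo-4 NW plus probenecid (30 min 37 °C, 15 min RT). Compounds prepared at 0.012–100 μM, 0.2% DMSO final. FLIPR calcium signal over 300 s as Fmax−Fmin; EC50 from variable-slope fit (Hill <2).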
compound,measurement,value
"CCc1cc2cc(Cl)cc(COc3ccc(CCC(=O)O)c4c3CCC4)c2o1 [Compound 54, 3-{7-[(5-Chloro-2-ethyl-1-benzofuran-7-yl)methoxy]-2,3-dihydro-1H-inden-4-yl}propanoic acid]",EC50,36 nM
"Cc1cc2cc(OC(F)F)cc(COc3ccc(CCC(=O)O)c(C)c3C)c2o1 [Compound 76, 3-(4-{[5-(Difluoromethoxy)-2-methyl-1-benzofuran-7-yl]methoxy}-2,3-dimethylphenyl)propanoic acid]",EC50,20 nM
"CCCc1cc2cc(Cl)cc(COc3ccc(CCC(=O)O)c(C)c3C)c2o1 [Compound 31, 3-{4-[(5-Chloro-2-propyl-1-benzofuran-7-yl)methoxy]-2,3-dimethylphenyl}propanoic acid]",EC50,44 nM
"Cc1c(CCC(=O)O)ccc(OCc2cc(OC(F)(F)F)cc3cc(CC(F)F)oc23)c1C [Compound 96, 3-(4-{[2-(2,2-Difluoroethyl)-5-(trifluoromethoxy)-1-benzofuran-7-yl]methoxy}-2,3-dimethylphenyl)propanoic acid]",EC50,30 nM
"CCc1cc2ccc(OC(F)F)c(COc3ccc(CCC(=O)O)c(C)c3C)c2o1 [Compound 70, 3-(4-{[6-(Difluoromethoxy)-2-ethyl-1-benzofuran-7-yl]methoxy}-2,3-dimethylphenyl)propanoic acid]",EC50,162 nM
"CCc1cc2cc(Cl)c(OC(C)C)c(COc3ccc(CCC(=O)O)c(C)c3C)c2o1 [Compound 65, 3-(4-{[5-Chloro-2-ethyl-6-(1-methylethoxy)-1-benzofuran-7-yl]methoxy}-2,3-dimethylphenyl)propanoic acid]",EC50,96 nM
"Cc1cc2c(COc3ccc(CCC(=O)O)c(C)c3C)cc(Cl)cc2o1 [Compound 81, 3-{4-[(6-Chloro-2-methyl-1-benzofuran-4-yl)methoxy]-2,3-dimethylphenyl}propanoic acid]",EC50,136 nM
"Cc1oc2cccc(COc3ccc(CCC(=O)O)c(C)c3C)c2c1C [Compound 60, 3-{4-[(2,3-Dimethyl-1-benzofuran-4-yl)methoxy]-2,3-dimethylphenyl}propanoic acid]",EC50,162 nM
"CCc1cc2cc(Cl)c(OCCOC)c(COc3ccc(CCC(=O)O)c(C)c3C)c2o1 [Compound 63, 3-(4-{[5-Chloro-2-ethyl-6-(2-methoxyethoxy)-1-benzofuran-7-yl]methoxy}-2,3-dimethylphenyl)propanoic acid]",EC50,67 nM
"CCCc1cc2cc(Cl)cc(COc3ccc(CCC(=O)O)c(F)c3F)c2o1 [Compound 59, 3-{4-[(5-Chloro-2-propyl-1-benzofuran-7-yl)methoxy]-2,3-difluorophenyl}propanoic acid]",EC50,93 nM
"CCc1cc2cc(OC(F)F)cc(COc3ccc(CCC(=O)O)c(C)c3C)c2o1 [Compound 57, 3-(4-{[5-(Difluoromethoxy)-2-ethyl-1-benzofuran-7-yl]methoxy}-2,3-dimethylphenyl)propanoic acid]",EC50,17 nM
"CCc1cc2cc(Br)cc(COc3ccc(CCC(=O)O)c(C)c3C)c2o1 [Compound 45, 3-{4-[(5-Bromo-2-ethyl-1-benzofuran-7-yl)methoxy]-2,3-dimethylphenyl}propanoic acid]",EC50,24 nM
"CCCc1cc2cc(I)cc(COc3ccc(CCC(=O)O)c(C)c3C)c2o1 [Compound 47, 3-{4-[(5-Iodo-2-propyl-1-benzofuran-7-yl)methoxy]-2,3-dimethylphenyl}propanoic acid]",EC50,22 nM
"CC#Cc1cc(COc2ccc(CCC(=O)O)c(C)c2C)c2oc(CCC)cc2c1 [Compound 58, 3-{2,3-Dimethyl-4-[(2-propyl-5-prop-1-yn-1-yl-1-benzofuran-7-yl)methoxy]phenyl}propanoic acid]",EC50,87 nM
"COCc1cc2cc(F)cc(COc3ccc(CCC(=O)O)c(C)c3C)c2o1 [Compound 21, 3-(4-{[5-Fluoro-2-(methoxymethyl)-1-benzofuran-7-yl]methoxy}-2,3-dimethylphenyl)propanoic acid]",EC50,159 nM
"Cc1c(CCC(=O)O)ccc(OCc2cc(F)cc3cc(C(F)F)oc23)c1C [Compound 32, 3-(4-{[2-(Difluoromethyl)-5-fluoro-1-benzofuran-7-yl]methoxy}-2,3-dimethylphenyl)propanoic acid]",EC50,277 nM
"Cc1cc2c(F)c(OC(F)(F)F)c(F)c(COc3ccc(CCC(=O)O)c(F)c3F)c2o1 [Compound 75, 3-(4-{[4,6-Difluoro-2-methyl-5-(trifluoromethoxy)-1-benzofuran-7-yl]methoxy}-2,3-difluorophenyl)propanoic acid]",EC50,182 nM
"CCCc1cc(OCc2cc(OC(F)(F)F)cc3cc(CC)oc23)c(F)cc1CCC(=O)O [Compound 50, 3-(4-{[2-Ethyl-5-(trifluoromethoxy)-1-benzofuran-7-yl]methoxy}-5-fluoro-2-propylphenyl)propanoic acid]",EC50,59 nM
"Cc1cc2cc3c(c(COc4ccc(CCC(=O)O)c(C)c4C)c2o1)OCCO3 [Compound 90, 3-{2,3-Dimethyl-4-[(7-methyl-2,3-dihydrofuro[2,3-g][1,4]benzodioxin-5-yl)methoxy]phenyl}propanoic acid]",EC50,113 nM
"CCCc1cc2cc(OC(F)F)cc(COc3ccc(CCC(=O)O)c(C)c3C)c2o1 [Compound 77, 3-(4-{[5-(Difluoromethoxy)-2-propyl-1-benzofuran-7-yl]methoxy}-2,3-dimethylphenyl)propanoic acid]",EC50,28 nM
"Cc1c(CCC(=O)O)ccc(OCc2cc(F)cc3cc(C4CCCC4)oc23)c1C [Compound 18, 3-{4-[(2-Cyclopentyl-5-fluoro-1-benzofuran-7-yl)methoxy]-2,3-dimethylphenyl}propanoic acid]",EC50,653 nM
"Cc1c(CCC(=O)O)ccc(OCc2cc(F)cc3cc(C#N)oc23)c1C [Compound 49, 3-{4-[(2-Cyano-5-fluoro-1-benzofuran-7-yl)methoxy]-2,3-dimethylphenyl}propanoic acid]",EC50,237 nM
"CCCc1cc2cc(OC(F)(F)F)cc(COc3ccc(CCC(=O)O)c(C)c3C)c2o1 [Compound 35, 3-(2,3-Dimethyl-4-{[2-propyl-5-(trifluoromethoxy)-1-benzofuran-7-yl]methoxy}phenyl)propanoic acid]",EC50,40 nM
"CCc1cc2cc(Cl)c(OCC(F)(F)F)c(COc3ccc(CCC(=O)O)c(C)c3C)c2o1 [Compound 64, 3-(4-{[5-Chloro-2-ethyl-6-(2,2,2-trifluoroethoxy)-1-benzofuran-7-yl]methoxy}-2,3-dimethylphenyl)propanoic acid]",EC50,56 nM
"CCCc1cc2cc(Cl)cc(COc3ccc(CCC(=O)O)c(C)c3C#N)c2o1 [Compound 41, 3-{4-[(5-Chloro-2-propyl-1-benzofuran-7-yl)methoxy]-3-cyano-2-methylphenyl}propanoic acid]",EC50,291 nM
"Cc1oc2c(COc3ccc(CCC(=O)O)c(C)c3C)cc(F)cc2c1F [Compound 5, 3-{4-[(3,5-Difluoro-2-methyl-1-benzofuran-7-yl)methoxy]-2,3-dimethylphenyl}propanoic acid]",EC50,1240 nM
"Cc1c(CCC(=O)O)ccc(OCc2cc(Cl)cc3cn(C)nc23)c1C [Compound 8, 3-{4-[(5-Chloro-2-methyl-2H-indazol-7-yl)methoxy]-2,3-dimethylphenyl}propanoic acid]",EC50,297 nM
"CCOc1c(Cl)cc2cc(CC)oc2c1COc1ccc(CCC(=O)O)c(C)c1C [Compound 62, 3-{4-[(5-Chloro-6-ethoxy-2-ethyl-1-benzofuran-7-yl)methoxy]-2,3-dimethylphenyl}propanoic acid]",EC50,67 nM
"CCc1cc2cc(Cl)c(CC)c(COc3ccc(CCC(=O)O)c(C)c3C)c2o1 [Compound 61, 3-{4-[(5-Chloro-2,6-diethyl-1-benzofuran-7-yl)methoxy]-2,3-dimethylphenyl}propanoic acid]",EC50,24 nM
"CCc1cc2cc(F)cc(COc3ccc(CCC(=O)O)c(C)c3C)c2o1 [Compound 3, 3-{4-[(2-Ethyl-5-fluoro-1-benzofuran-7-yl)methoxy]-2,3-dimethylphenyl}propanoic acid]",EC50,58 nM
"Cc1cc2c(F)c(OC(F)(F)F)c(F)c(COc3ccc(CCC(=O)O)c(C)c3C)c2o1 [Compound 71, 3-(4-{[4,6-Difluoro-2-methyl-5-(trifluoromethoxy)-1-benzofuran-7-yl]methoxy}-2,3-dimethylphenyl)propanoic acid]",EC50,64 nM
"Cc1c(CCC(=O)O)ccc(OCc2cc(Cl)cc3cc(C=CF)oc23)c1C (mixture of isomers) [Compound 88, 3-(4-((5-Chloro-2-(2-fluorovinyl)benzofuran-7-yl)methoxy)-2,3-dimethylphenyl)propanoic acid]",EC50,147 nM
"Cc1nc2c(COc3ccc(CCC(=O)O)c(C)c3C)cc(Cl)cc2s1 [Compound 98, 3-{4-[(6-Chloro-2-methyl-1,3-benzothiazol-4-yl)methoxy]-2,3-dimethylphenyl}propanoic acid]",EC50,18 nM
"Cc1cc2cc(OC(F)(F)F)cc(COc3ccc(CCC(=O)O)c4c3CCC4)c2o1 [Compound 55, 3-(7-{[2-Methyl-5-(trifluoromethoxy)-1-benzofuran-7-yl]methoxy}-2,3-dihydro-1H-inden-4-yl)propanoic acid]",EC50,28 nM
"CCc1cc2cc(Cl)c(OC)c(COc3ccc(CCC(=O)O)c(C)c3C)c2o1 [Compound 44, 3-{4-[(5-Chloro-2-ethyl-6-methoxy-1-benzofuran-7-yl)methoxy]-2,3-dimethylphenyl}propanoic acid]",EC50,27 nM
"Cc1cc2cc(Cl)c(C)c(COc3c(F)cc(CCC(=O)O)cc3F)c2o1 [Compound 86, 3-{4-[(5-Chloro-2,6-dimethyl-1-benzofuran-7-yl)methoxy]-3,5-difluorophenyl}propanoic acid]",EC50,207 nM
